Patent US11813264B2, “PAR1 modulation to alter myelination” (Mayo Foundation for Medical Education and Research, priority 2014, dated 2023)
Entries after “also recorded” stand apart in the source; their conditions may differ.

Experiments:
[1] = tested on: oligodendrocyte progenitor cells (OPCs); assay: OPC process outgrowth; assay type: cell-based, mouse
Description: Oligodendrocyte Cultures: Purified cortical oligodendrocyte progenitor cells (OPCs) and differentiated oligodendrocytes were isolated from mixed glial cultures derived from postnatal day 1 mice (McCarthy and de Vellis, J Cell Blot 85:890-902, 1980). Glial cultures were grown in media containing DMEM, 2 mM Glutamax, 1 mM sodium pyruvate, 20 mM HEPES, and 10% heat-inactivated fetal calf serum (Atlanta Biologicals, Lawrenceville, GA). OPCs were isolated from 10 days-in-vitro (DIV) mixed glial cultures by overnight shaking and purified by differential adhesion. OPCs were seeded in defined Neurobasal A media containing 1% N2, 50 U/mL penicillin/streptomycin, 2 mM Glutamax, 1 mM sodium pyruvate, 0.45% glucose, and 50 μM β-mercaptoethanol (Sigma Aldrich, USA). OPCs were seeded at 3×10^4/cm^2 onto tissue culture plastic or 12 mm glass cover slips coated with poly-L-lysine (PLL, 10 μg/mL). After 24 h, cultures were 92-98% immunoreactive (IR) for sulfatide (O4) and by 72 hours at least 80% were also MBP-IR.
PAR agonist-induced changes in oligodendrocyte morphology: To determine the effects of recombinant Klk6, Klk1, thrombin, or PAR1-AP on oligodendroglia, 3 DIV PAR1^+/+, PAR1^−/−, and PAR2^−/− oligodendrocytes, PAR1^+/+ OPCs immediately post purification, or Oli-neu cells were grown on cover slips in the presence of agonists for 24 h. For ATP toxicity assays, oligodendrocytes were incubated with ATP (50 μM, Sigma Aldrich) in the presence of Klk6 or Klk1. Following each treatment, oligodendrocyte and OPC cultures were immunolabeled for O4 to visualize the cell body and processes. Oli-neu processes were visualized by staining the actin cytoskeleton with Cy3-conjugated Phalloidin.
To assess the effects of Klk6 and other PAR1 agonists on oligodendrocyte morphology and process stability, 20× digital micrographs were overlaid with a 780 μm^2 grid and ImageJ software 1.45r (National Institutes of Health) used to record cell number and the number of processes crossing horizontal grid lines (Scarisbrick et al., Brain 125:1283-1296, 2002). Data are expressed as the mean number of O4^+ or Phalloidin^+ processes per DAPI^+ cell (±SEM).
Changes in OPC or oligodendrocyte morphology were quantified from five microscopic fields per cover slip with the mean and SEM calculated across three cover slips per experiment. Each experiment was repeated at least twice using independent cultures. Analysis of oligodendrocyte morphology was performed without knowledge of treatment groups.

[2] = tested on: Erk1/2 phosphorylation; assay: Klk6-PAR signaling assay, Erk1/2 phosphorylation by Western blot in Oli-neu; assay type: cell-based, mouse
Description: Klk6-PAR signaling assays: To examine the ability of Klk6 to mediate PAR-dependent signaling in oligodendrocytes, Oli-neu oligodendroglia (3.5×10^5 cells/well in six-well plates) were treated with Klk6 (150 nM) for 10 min, followed by protein harvest. Cell lysates were analyzed for phosphorylated or nonphosphorylated Erk1/2 by Western blot. In experiments to determine the role of PARs in Klk6 signaling, Oli-neu were preincubated with the PAR1 antagonist, SCH79797 dihydrochloride (50 nM, Tocris Biosciences, Minneapolis, MN) for 30 minutes prior to Klk6 application.
Western blot: Oli-neu lysates were obtained using a buffer containing 1% NP40, 0.5% deoxycholate, 10% glycerol, and 20 mM Tris base and separated on SDS-polyacrylamide gels prior to transfer. Membranes were blocked with 5% milk in TBS-T and incubated overnight with primary antibodies including rabbit anti-phospho-Erk1/2 (1:1,000, Cell Signaling Technology, Danvers, MA), followed with a species-appropriate horseradish peroxidase-conjugated secondary antibody (1:20,000 GE Healthcare Unlimited, UK). Signal was detected using Chemiluminescence Supersignal Pico (Pierce, Rockford, IL). Western blots were repeated three times from independent cultures, scanned, and quantified by densitometry (BioRad Quantity One 1-D Analysis Software, BioRad, Hercules, CA). Erk1/2 signal was normalized to its nonphosphorylated form. Equal loading was verified by reprobing blots for […] (Novus Biologicals, Littleton, CO).

[3] = biological target: T1, PAR1 (Mus musculus, UniProt P30558); assay: Neural precursor cell proliferation (BrdU incorporation); assay type: cell-based; set-up: endogenous in cells; settings: 70, 35, 10 or 1 nM; NPCs from adult SVZ
T1 sequence (P30558 22-430): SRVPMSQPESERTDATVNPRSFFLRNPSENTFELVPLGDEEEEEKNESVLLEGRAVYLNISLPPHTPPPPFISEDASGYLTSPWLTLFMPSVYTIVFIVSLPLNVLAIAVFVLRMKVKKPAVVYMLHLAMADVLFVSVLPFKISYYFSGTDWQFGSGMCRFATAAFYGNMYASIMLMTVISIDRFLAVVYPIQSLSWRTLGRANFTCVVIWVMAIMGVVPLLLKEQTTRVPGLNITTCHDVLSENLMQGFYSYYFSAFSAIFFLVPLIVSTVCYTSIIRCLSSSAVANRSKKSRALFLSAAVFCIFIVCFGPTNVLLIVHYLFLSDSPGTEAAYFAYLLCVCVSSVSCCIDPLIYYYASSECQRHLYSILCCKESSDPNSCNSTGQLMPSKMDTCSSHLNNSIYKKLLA
Description: Effects of pharmacologic inhibition of PAR1 on NPC proliferation in vitro: NPCs were isolated from the SVZ of 8 week-old adult C57BL6/J mice, cultured in suspension, and treated with 70, 35, 10, or 1 nM of SCH79797, a small molecule inhibitor of PAR1.

[4] = biological target: T1, PAR1; assay: Oligodendrocyte gene expression after PAR1 inhibitor treatment, real time RT-PCR; assay type: cell-based; set-up: endogenous in cells; host or cells: primary mouse oligodendrocytes (OPCs shaken from P1 cortical mixed glial cultures); settings: 70 nM for 48 hours
[5] = biological target: T1, PAR1; assay: Organotypic cerebellar slice culture with PAR1 inhibitor; assay type: cell-based; set-up: endogenous in cells; host or cells: primary mouse oligodendrocytes (OPCs shaken from P1 cortical mixed glial cultures); settings: 70 nM, 7 days
Description: Pharmacologic inhibition of PAR1 in an organotypic cerebellar slice culture system: Cerebellar slices (350 μm) from postnatal day 8 mouse brain were grown in cell culture for 7 days in the presence or absence of 70 nM SCH79797, a small molecule inhibitor of PAR1. Cerebellar slices were then fixed with 2% paraformaldehyde and stained using immunofluorescence techniques for myelin associated makers, including MBP, a marker of mature oligodendrocytes (CC-1), and for a marker of oligodendrocyte progenitor cells (NG2). The photomicrographs in FIG. 16 show staining for each individual antigen, or for all of the antigens collectively in a single slice, as indicated.

BrdU incorporation [3]: greater levels
NogoA RNA [4]: decrease
Olig2 RNA [4]: decrease
expression of MBP RNA [4]: significant increase
expression of PLP RNA ([4]; oligodendrocytes 24 hours in culture): significant increase
number of mature oligodendrocytes (CC-1) [5]: significant increases
number of progenitor cells positive for NG2 [5]: significant increases
abundance of MBP ([5]; P8 cerebellar slices): significant increases
Structure (SMILES): CC(C)c1ccc(Cn2ccc3c4c(N)nc(NC5CC5)nc4ccc32)cc1 [SCH79797]
Klk6-mediated inhibition of process outgrowth in presence of inhibitor ([1]; SCH79797 50 nM): diminished
attenuation of the ability of Klk6 to reduce OPC process outgrowth ([1]; SCH79797 50 nM for 3 hours prior to Klk6): ~34%
OPC process outgrowth relative to vehicle controls ([1]; SCH79797 alone): no significant effect
ability of Klk6 to induce MAPK (Erk1/2) signaling in presence of inhibitor ([2]; SCH79797 50 nM, preincubated 30 minutes): blocked; also recorded: abolished
Erk1/2 phosphorylation ([2]; treatment alone, Klk6 10 minutes): No significant changes
